Assay [1] relates to Aβtotal. The assay is described as follows: Screening for γ-secretase-modulating activity: Aβtotal in supernatant of SKNBE2 cells carrying hAPP 695 wild type (Alphalisa). Type of assay: cell-based, human. The settings on record: overnight incubation, Alphalisa on supernatant. How it is done: (§1) Pharmacology A) Screening of the Compounds of the Invention for γ-Secretase-Modulating Activity
(§2) Screening was carried out using SKNBE2 human neuroblastoma cells carrying the hAPP 695—wild type, grown in Dulbecco's Modified Eagle's Medium/Nutrient mixture F-12 (DMEM/NUT-mix F-12) (HAM) provided by Invitrogen (cat no. 10371-029) containing 5% Serum/Fe supplemented with 1% non-essential amino acids, 1-glutamine 2 mM, Hepes 15 mM, penicillin 50 U/mL (units/mL) en streptomycin 50 μg/mL. Cells were grown to near confluency.
(§3) The screening was performed using a modification of the assay as described in Citron et al (1997) Nature Medicine 3: 67. Briefly, cells were plated in a 384-well plate at 10^4 cells/well in Ultraculture (Lonza, BE12-725F) supplemented with 1% glutamine (Invitrogen, 25030-024), 1% non-essential amino acid (NEAA), penicillin 50 U/mL en streptomycin 50 μg/mL in the presence of test compound at different test concentrations. The cell/compound mixture was incubated overnight at 37° C., 5% CO2. The next day the media were assayed by two sandwich immuno-assays, for Aβ42 and Aβtotal.
(§4) Aβtotal and Aβ42 concentrations were quantified in the cell supernatant using the Aphalisa technology (Perkin Elmer). Alphalisa is a sandwich assay using biotinylated antibody attached to streptavidin coated donorbeads and antibody conjugated to acceptor beads. In the presence of antigen, the beads come into close proximity. The excitation of the donor beads provokes the release of singlet oxygen molecules that trigger a cascade of energy transfer in the acceptor beads, resulting in light emission. To quantify the amount of Aβ42 in the cell supernatant, monoclonal antibody specific to the C-terminus of Aβ42 (JRF/cAβ42/26) was coupled to the receptor beads and biotinylated antibody specific to the N-terminus of Aβ (JRF/AβN/25) was used to react with the donor beads. To quantify the amount of Aβ total in the cell supernatant, monoclonal antibody specific to the N-terminus of Aβ (JRF/AβN/25) was coupled to the receptor beads and biotinylated antibody specific to the mid region of Aβ (biotinylated 4G8) was used to react with the donor beads.
(§5) To obtain the values reported in Table 3, the data are calculated as percentage of the maximum amount of amyloid Beta 42 measured in the absence of the test compound. The sigmoidal dose response curves were analyzed using nonlinear regression analysis with percentage of the control plotted against the log concentration of the compound. A 4-parameter equation was used to determine the IC50.
(Alpha assays give light when donor and acceptor beads are brought close together.)

In assay [2] the test system is Aβ42. Nature of the assay: Screening for γ-secretase-modulating activity: Aβ42 in supernatant of SKNBE2 cells carrying hAPP 695 wild type (Alphalisa). It is filed as cell-based, human. Conditions: overnight incubation, Alphalisa on supernatant. On the procedure: as §1, §2, §3, §4, §5
The mark [3] stands for this setting: Homo sapiens, SKNBE2, SKNBE2 human neuroblastoma cells carrying hAPP 695 wild type.
Setting [4] is: SKNBE2 human neuroblastoma cells carrying hAPP 695 wild type.

These results are taken from US9115143B2, “Substituted indole derivatives as gamma secretase modulators” (Janssen Pharmaceuticals, Inc., priority 2011, dated 2015).

Structures are written as SMILES.

On to `Cc1cc(F)ccc1C1CCCn2nc(-c3[nH]c4ccc(C#N)cc4c3F)nc21` (single isomer, unassigned) [Compound 181, 3-fluoro-2-[8-(4-fluoro-2-methylphenyl)-5,6,7,8-tetrahydro[1,2,4]triazolo[1,5-a]pyridin-2-yl]-1H-indole-5-carbonitrile], for which the results for the IC50 in assay [1] (setting [3]) and in assay [2] (setting [4]) were greater than 10000 nM and 5890 nM, respectively.

Regarding `COCc1ccccc1C1OCCn2cc(-c3cc4c(OC)c(C#N)ccc4[nH]3)nc21` (centres unmarked) [Compound 146, 2-[5,6-dihydro-8-[2-(methoxymethyl)phenyl]-8H-imidazo[2,1-c][1,4]oxazin-2-yl]-4-methoxy-1H-indole-5-carbonitrile], the values for the IC50 in assay [1] (setting [4]) and in assay [2] (setting [4]) were greater than 10000 nM and 6170 nM, respectively.

On to `COc1c(-n2cnc(C)c2)ccc2[nH]c(-c3cn4c(n3)C(c3ccc(F)cc3C)OCC4)cc12` (single isomer, unassigned) [Compound 113, 8-(4-fluoro-2-methylphenyl)-5,6-dihydro-2-[4-methoxy-5-(4-methyl-1H-imidazol-1-yl)-1H-indol-2-yl]-8H-imidazo[2,1-c][1,4]oxazine], for which the IC50 (in general, the midpoint of a concentration-inhibition curve) is greater than 10000 nM in assay [1] (setting [4]) and 151 nM in assay [2] (setting [4]).

For the molecule `COc1c(C#N)ccc2[nH]c(-c3cn4c(n3)C(c3cccc(F)c3C(F)(F)F)OCC4)cc12` (single isomer, unassigned) [Compound 132, 2-[8-[3-fluoro-2-(trifluoromethyl)phenyl]-5,6-dihydro-8H-imidazo[2,1-c][1,4]oxazin-2-yl]-4-methoxy-1H-indole-5-carbonitrile], the IC50 in assay [1] (setting [4]) is greater than 10000 nM; in assay [2] (setting [4]), 490 nM.

With `COc1ccccc1C1CCCn2nc(-c3cc4cc(-n5cnc(C)c5)ccc4[nH]3)nc21` (single isomer, unassigned) [Compound 81, 5,6,7,8-tetrahydro-8-(2-methoxyphenyl)-2-[5-(4-methyl-1H-imidazol-1-yl)-1H-indol-2-yl]-[1,2,4]triazolo[1,5-a]pyridine], the IC50 in assay [1] (setting [4]) is greater than 10000 nM; in assay [2] (setting [4]), 74 nM.

Take `COc1c(C#N)ccc2[nH]c(-c3cn4c(n3)COCC4c3ccccc3)cc12` (centres unmarked) [Compound 184, 2-(5,6-dihydro-5-phenyl-8H-imidazo[2,1-c][1,4]oxazin-2-yl)-4-methoxy-1H-indole-5-carbonitrile]: the IC50 in assay [1] (setting [3]) turned out to be 5370 nM; in assay [2] (setting [3]), 3090 nM.

In the case of `Cc1cc(F)ccc1C1OCCn2nc(-c3cc4c(OCC(F)F)c(C#N)ccc4[nH]3)nc21` (centres unmarked) [Compound 168, 4-(2,2-difluoroethoxy)-2-[8-(4-fluoro-2-methylphenyl)-5,6-dihydro-8H-[1,2,4]triazolo[5,1-c][1,4]oxazin-2-yl]-1H-indole-5-carbonitrile], the IC50 in assay [1] (setting [3]) was greater than 10000 nM; in assay [2] (setting [3]), 245 nM.

Turning to `COc1c(C#N)ccc2[nH]c(-c3cn4c(n3)COCC4(C)c3cc(C(F)(F)F)ccc3F)cc12` (centres unmarked) [Compound 183, 2-[5-[2-fluoro-5-(trifluoromethyl)phenyl]-5,6-dihydro-5-methyl-8H-imidazo[2,1-c][1,4]oxazin-2-yl]-4-methoxy-1H-indole-5-carbonitrile], the results for the IC50 in assay [1] (setting [3]) and in assay [2] (setting [3]) were greater than 10000 nM and 2880 nM, respectively.

Take `COc1c(C#N)ccc2[nH]c(-c3cn4c(n3)C(c3c(F)cccc3Cl)OCC4)cc12` (single isomer, unassigned) [Compound 123, 2-[8-(2-chloro-6-fluorophenyl)-5,6-dihydro-8H-imidazo[2,1-c][1,4]oxazin-2-yl]-4-methoxy-1H-indole-5-carbonitrile]: the IC50 in assay [1] (setting [4]) was greater than 10000 nM; in assay [2] (setting [4]), 2820 nM.

Turning to `COc1c(C#N)ccc2[nH]c(-c3nc4n(n3)CCOC4c3cc(C(F)(F)F)ccc3F)cc12` (centres unmarked) [Compound 121, 2-[8-[2-fluoro-5-(trifluoromethyl)phenyl]-5,6-dihydro-8H-[1,2,4]triazolo[5,1-c][1,4]oxazin-2-yl]-4-methoxy-1H-indole-5-carbonitrile], the results for the IC50 in assay [1] (setting [3]) and in assay [2] (setting [3]) were greater than 10000 nM and 110 nM, respectively.

On to `COc1c(-n2cnc(C)c2)ccc2[nH]c(-c3cn4c(n3)C(c3ccc(F)cc3C)OCC4)cc12` (single isomer, unassigned) [Compound 112, 8-(4-fluoro-2-methylphenyl)-5,6-dihydro-2-[4-methoxy-5-(4-methyl-1H-imidazol-1-yl)-1H-indol-2-yl]-8H-imidazo[2,1-c][1,4]oxazine], for which the half-inhibitory concentration (IC50) in assay [1] (setting [3]) was greater than 10000 nM; in assay [2] (setting [4]), 21 nM.

For the molecule `COc1c(C#N)ccc2[nH]c(-c3cn4c(n3)C(c3cc(F)ccc3C)OCC4)cc12` (centres unmarked) [Compound 151, 2-[8-(5-fluoro-2-methylphenyl)-5,6-dihydro-8H-imidazo[2,1-c][1,4]oxazin-2-yl]-4-methoxy-1H-indole-5-carbonitrile], the IC50 in assay [1] (setting [3]) was greater than 10000 nM; in assay [2] (setting [4]) it was 54 nM.

With `COCc1ccccc1C1CCCn2nc(-c3cc4c(OC)c(C#N)ccc4[nH]3)nc21` (centres unmarked) [Compound 89, 4-methoxy-2-[5,6,7,8-tetrahydro-8-[2-(methoxymethyl)phenyl][1,2,4]triazolo[1,5-a]pyridin-2-yl]-1H-indole-5-carbonitrile], the IC50 in assay [1] (setting [3]) is greater than 10000 nM; in assay [2] (setting [4]) it was 56 nM.

`Cc1cc(-c2ccc3[nH]c(-c4nc5n(n4)CCCC5c4ccc(F)cc4C)nc3c2)ccn1` (single isomer, unassigned) [Compound 174, 8-(4-fluoro-2-methylphenyl)-5,6,7,8-tetrahydro-2-[5-(2-methyl-4-pyridinyl)-1H-benzimidazol-2-yl]-[1,2,4]triazolo[1,5-a]pyridine]: the figures for the IC50 in assay [1] (setting [3]) and in assay [2] (setting [4]) were greater than 10000 nM and 110 nM, respectively.

Regarding `COc1c(-n2cnc(C)c2)ccc2[nH]c(-c3nc4n(n3)CCCC4c3ccc(F)cc3C)cc12` (single isomer, unassigned) [Compound 84, 8-(4-fluoro-2-methylphenyl)-5,6,7,8-tetrahydro-2-[4-methoxy-5-(4-methyl-1H-imidazol-1-yl)-1H-indol-2-yl]-[1,2,4]triazolo[1,5-a]pyridine], the concentration for half-maximal inhibition (IC50) came out at 5370 nM in assay [1] (setting [4]) and 48 nM in assay [2] (setting [4]).

`Cc1cc(F)ccc1C1CCCn2nc(-c3nc4cc(-n5cncc5C)ccc4[nH]3)nc21` (centres unmarked) [Compound 177, 8-(4-fluoro-2-methylphenyl)-5,6,7,8-tetrahydro-2-[5-(5-methyl-1H-imidazol-1-yl)-1H-benzimidazol-2-yl]-[1,2,4]triazolo[1,5-a]pyridine]: the IC50 in assay [1] (setting [3]) was greater than 10000 nM; in assay [2] (setting [3]), 2510 nM.

As for `Cc1cc(F)ccc1C1CCCn2nc(-c3cc4cc(C#N)ccc4[nH]3)nc21` (centres unmarked) [Compound 11, 2-[8-(4-fluoro-2-methylphenyl)-5,6,7,8-tetrahydro[1,2,4]triazolo[1,5-a]pyridin-2-yl]-1H-indole-5-carbonitrile], the IC50 was greater than 10000 nM in assay [1] (setting [4]) and 3470 nM in assay [2] (setting [4]).

With `COc1c(C#N)ccc2[nH]c(-c3cn4c(n3)C(c3cccc(C)c3F)OCC4)cc12` (single isomer, unassigned) [Compound 135, 2-[8-(2-fluoro-3-methylphenyl)-5,6-dihydro-8H-imidazo[2,1-c][1,4]oxazin-2-yl]-4-methoxy-1H-indole-5-carbonitrile], the figures for the IC50 in assay [1] (setting [3]) and in assay [2] (setting [4]) were greater than 10000 nM and 36 nM, respectively.

`Cc1ccccc1C1CCCn2cc(-c3cc4cc(C#N)ccc4[nH]3)nc21` (centres unmarked) [Compound 15, 2-[5,6,7,8-tetrahydro-8-(2-methylphenyl)imidazo[1,2-a]pyridin-2-yl]-1H-indole-5-carbonitrile]: the IC50 in assay [1] (setting [3]) is greater than 10000 nM; in assay [2] (setting [3]), 89 nM.

Consider `Cc1cc(F)ccc1C1CCCn2nc(-c3cc4cc(C#N)cnc4[nH]3)nc21` (centres unmarked) [Compound 23, 2-[8-(4-fluoro-2-methylphenyl)-5,6,7,8-tetrahydro[1,2,4]triazolo[1,5-a]pyridin-2-yl]-1H-pyrrolo[2,3-b]pyridine-5-carbonitrile], for which the values for the IC50 in assay [1] (setting [3]) and in assay [2] (setting [3]) were greater than 10000 nM and 589 nM, respectively.

With `COc1c(C#N)ccc2[nH]c(-c3cn4c(n3)C(c3cccc(C)c3F)OCC4)cc12` (single isomer, unassigned) [Compound 136, 2-[8-(2-fluoro-3-methylphenyl)-5,6-dihydro-8H-imidazo[2,1-c][1,4]oxazin-2-yl]-4-methoxy-1H-indole-5-carbonitrile], the figures for the IC50 in assay [1] (setting [4]) and in assay [2] (setting [4]) were greater than 10000 nM and 1260 nM, respectively.

As for `CCc1cc(F)ccc1C1OCCn2nc(-c3cc4cc(C#N)ccc4[nH]3)nc21` (centres unmarked) [Compound 95, 2-[8-(2-ethyl-4-fluorophenyl)-5,6-dihydro-8H-[1,2,4]triazolo[5,1-c][1,4]oxazin-2-yl]-1H-indole-5-carbonitrile], the IC50 is greater than 10000 nM in assay [1] (setting [3]) and 355 nM in assay [2] (setting [3]).
